Data taken from patent US10150760B2, “Compounds for use in preparing heterocyclic triazole agonists of the APJ receptor” (AMGEN INC., priority 2016, dated 2018).
pEC50: −log10 of the molar value.

Target: human APJ receptor (Homo sapiens (Human), UniProt P35414)
Experiment: [35S]GTPγS binding assay on membranes from CHO cells stably expressing human APJ receptor
Format: biochemical
Details: read-out: Activity hAPJ SPA EC50 IP
In short: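 Agonist-driven [35S]GTPγS (0.2 nM) binding was measured over 90 min at room temperature on human APJ-expressing CHO membranes with bead capture, in buffer containing 3 μM GDP, 200 mM NaCl and 5 mM MgCl2 (pH 7.5). Excess unlabelled GTPγS (100 μM) gave nonspecific signal; EC50 from non-linear fits.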

human APJ receptor, sequence (P35414 whole entry): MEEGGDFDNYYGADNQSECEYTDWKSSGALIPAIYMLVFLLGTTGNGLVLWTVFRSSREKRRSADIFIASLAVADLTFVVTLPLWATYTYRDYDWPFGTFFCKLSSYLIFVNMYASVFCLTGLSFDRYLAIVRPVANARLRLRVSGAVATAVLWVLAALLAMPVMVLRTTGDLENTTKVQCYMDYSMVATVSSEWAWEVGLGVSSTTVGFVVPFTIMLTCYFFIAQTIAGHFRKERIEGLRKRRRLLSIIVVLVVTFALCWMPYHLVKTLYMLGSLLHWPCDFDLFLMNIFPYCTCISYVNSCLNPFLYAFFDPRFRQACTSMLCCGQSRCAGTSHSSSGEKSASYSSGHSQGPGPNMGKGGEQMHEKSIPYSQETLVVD

Point of comparison: `COc1cccc(OC)c1-n1c(NS(=O)(=O)[C@@H](C)[C@@H](OC(C)C)c2ncc(C)cn2)nnc1[C@@H]1COC(C)(C)C1` (single isomer, unassigned) [Example 411.0, (1S,2S)-N-(4-(2,6-dimethoxyphenyl)-5-((3R)-5,5-dimethyltetrahydro-3-furanyl)-4H-1,2,4-triazol-3-yl)-1-(5-methyl-2-pyrimidinyl)-1-(2-propanyloxy)-2-propanesulfonamide or (1S,2S)-N-(4-(2,6-dimethoxyphenyl)-5-((3S)-5,5-dimethyltetrahydro-3-furanyl)-4H-1,2,4-triazol-3-yl)-1-(5-methyl-2-pyrimidinyl)-1-(2-propanyloxy)-2-propanesulfonamide], pEC50 7.07. Against it:
- CO[C@H](c1ncc(Cl)cn1)[C@H](C)S(=O)(=O)Nc1nnc([C@H]2CCOC2)n1Cc1ccon1 (single isomer, unassigned) [Example 402.0, (1R,2S)-1-(5-chloro-2-pyrimidinyl)-1-methoxy-N-(4-(1,2-oxazol-3-ylmethyl)-5-((3R)-tetrahydro-3-furanyl)-4H-1,2,4-triazol-3-yl)-2-propanesulfonamide or (1R,2S)-1-(5-chloro-2-pyrimidinyl)-1-methoxy-N-(4-(1,2-oxazol-3-ylmethyl)-5-((3S)-tetrahydro-3-furanyl)-4H-1,2,4-triazol-3-yl)-2-propanesulfonamide] — 0.68 log units lower, 6.39
- CO[C@H](c1ncc(Cl)cn1)[C@H](C)S(=O)(=O)Nc1nnc([C@@H]2CC[C@H](C)O2)n1Cc1ccon1 (single isomer, unassigned) [Example 403.0, (1R,2S)-1-(5-chloro-2-pyrimidinyl)-1-methoxy-N-(5-((2S,5S)-5-methyltetrahydro-2-furanyl)-4-(1,2-oxazol-3-ylmethyl)-4H-1,2,4-triazol-3-yl)-2-propanesulfonamide or (1R,2S)-1-(5-chloro-2-pyrimidinyl)-1-methoxy-N-(5-((2R,5R)-5-methyltetrahydro-2-furanyl)-4-(1,2-oxazol-3-ylmethyl)-4H-1,2,4-triazol-3-yl)-2-propanesulfonamide] — 0.52 log units lower, 6.55
- CO[C@H](c1ncc(Cl)cn1)[C@H](C)S(=O)(=O)Nc1nnc([C@@H]2CC[C@H](C)O2)n1Cc1ccon1 (single isomer, unassigned) [Example 404.0, (1R,2S)-1-(5-chloro-2-pyrimidinyl)-1-methoxy-N-(5-((2S,5S)-5-methyltetrahydro-2-furanyl)-4-(1,2-oxazol-3-ylmethyl)-4H-1,2,4-triazol-3-yl)-2-propanesulfonamide or (1R,2S)-1-(5-chloro-2-pyrimidinyl)-1-methoxy-N-(5-((2R,5R)-5-methyltetrahydro-2-furanyl)-4-(1,2-oxazol-3-ylmethyl)-4H-1,2,4-triazol-3-yl)-2-propanesulfonamide] — within 0.2 log units, 7.09
- COc1cccc(OC)c1-n1c(NS(=O)(=O)[C@@H](C)[C@H](OC)c2ncc(Cl)cn2)nnc1[C@H]1CCC(=O)N1C (single isomer, unassigned) [Example 405.0, (1R,2S)-1-(5-chloropyrimidin-2-yl)-N-(4-(2,6-dimethoxyphenyl)-5-((R)-1-methyl-5-oxopyrrolidin-2-yl)-4H-1,2,4-triazol-3-yl)-1-methoxypropane-2-sulfonamide or (1R,2S)-1-(5-chloropyrimidin-2-yl)-N-(4-(2,6-dimethoxyphenyl)-5-((S)-1-methyl-5-oxopyrrolidin-2-yl)-4H-1,2,4-triazol-3-yl)-1-methoxypropane-2-sulfonamide] — 1.31 log units lower, 5.76
- COc1cccc(OC)c1-n1c(NS(=O)(=O)[C@@H](C)[C@H](OC)c2ncc(Cl)cn2)nnc1[C@H]1CCC(=O)N1C (single isomer, unassigned) [Example 406.0, (1R,2S)-1-(5-chloropyrimidin-2-yl)-N-(4-(2,6-dimethoxyphenyl)-5-((R)-1-methyl-5-oxopyrrolidin-2-yl)-4H-1,2,4-triazol-3-yl)-1-methoxypropane-2-sulfonamide or (1R,2S)-1-(5-chloropyrimidin-2-yl)-N-(4-(2,6-dimethoxyphenyl)-5-((S)-1-methyl-5-oxopyrrolidin-2-yl)-4H-1,2,4-triazol-3-yl)-1-methoxypropane-2-sulfonamide] — 1.10 log units lower, 5.97
- COc1cccc(OC)c1-n1c(NS(=O)(=O)[C@@H](C)[C@@H](OC(C)C)c2ccc(C)cn2)nnc1[C@H]1CCOC1 (single isomer, unassigned) [Example 408.0, (1S,2S)-N-(4-(2,6-dimethoxyphenyl)-5-((3R)-tetrahydro-3-furanyl)-4H-1,2,4-triazol-3-yl)-1-(5-methyl-2-pyridinyl)-1-(2-propanyloxy)-2-propanesulfonamide or (1S,2S)-N-(4-(2,6-dimethoxyphenyl)-5-((3S)-tetrahydro-3-furanyl)-4H-1,2,4-triazol-3-yl)-1-(5-methyl-2-pyridinyl)-1-(2-propanyloxy)-2-propanesulfonamide] — within 0.2 log units, 7.19
- COc1cccc(OC)c1-n1c(NS(=O)(=O)[C@@H](C)[C@H](C)c2ccc(Cl)cn2)nnc1C1CCOC1 (single isomer, unassigned) [Example 409.0] — 0.89 log units higher, 7.96
- COc1cccc(OC)c1-n1c(NS(=O)(=O)[C@@H](C)[C@H](C)c2ccc(Cl)cn2)nnc1C1CCOC1 (single isomer, unassigned) [Example 410.0] — 0.65 log units higher, 7.72
- COc1cccc(OC)c1-n1c(NS(=O)(=O)[C@@H](C)[C@@H](OC(C)C)c2ncc(C)cn2)nnc1[C@@H]1COC(C)(C)C1 (single isomer, unassigned) [Example 412.0, (1S,2S)-N-(4-(2,6-dimethoxyphenyl)-5-((3R)-5,5-dimethyltetrahydro-3-furanyl)-4H-1,2,4-triazol-3-yl)-1-(5-methyl-2-pyrimidinyl)-1-(2-propanyloxy)-2-propanesulfonamide or (1S,2S)-N-(4-(2,6-dimethoxyphenyl)-5-((3S)-5,5-dimethyltetrahydro-3-furanyl)-4H-1,2,4-triazol-3-yl)-1-(5-methyl-2-pyrimidinyl)-1-(2-propanyloxy)-2-propanesulfonamide] — 0.33 log units higher, 7.40
- COc1cccc(OC)c1-n1c(NS(=O)(=O)[C@@H](C)[C@@H](OC(C)C)c2ncc(Cl)cn2)nnc1[C@H]1CCC(C)(C)O1 (single isomer, unassigned) [Example 413.0, (1S,2S)-1-(5-chloro-2-pyrimidinyl)-N-(4-(2,6-dimethoxyphenyl)-5-((2R)-5,5-dimethyltetrahydro-2-furanyl)-4H-1,2,4-triazol-3-yl)-1-(2-propanyloxy)-2-propanesulfonamide or (1S,2S)-1-(5-chloro-2-pyrimidinyl)-N-(4-(2,6-dimethoxyphenyl)-5-((2S)-5,5-dimethyltetrahydro-2-furanyl)-4H-1,2,4-triazol-3-yl)-1-(2-propanyloxy)-2-propanesulfonamide] — 1.06 log units higher, 8.13
- COc1cccc(OC)c1-n1c(NS(=O)(=O)[C@@H](C)[C@@H](OC(C)C)c2ncc(Cl)cn2)nnc1[C@H]1CCC(C)(C)O1 (single isomer, unassigned) [Example 414.0, (1S,2S)-1-(5-chloro-2-pyrimidinyl)-N-(4-(2,6-dimethoxyphenyl)-5-((2R)-5,5-dimethyltetrahydro-2-furanyl)-4H-1,2,4-triazol-3-yl)-1-(2-propanyloxy)-2-propanesulfonamide or (1S,2S)-1-(5-chloro-2-pyrimidinyl)-N-(4-(2,6-dimethoxyphenyl)-5-((2S)-5,5-dimethyltetrahydro-2-furanyl)-4H-1,2,4-triazol-3-yl)-1-(2-propanyloxy)-2-propanesulfonamide] — 1.85 log units higher, 8.92
- C[C@H](c1ncc(Cl)cn1)[C@H](C)S(=O)(=O)Nc1nnc([C@@H]2CCOC2)n1[C@H](C)c1ccon1 (single isomer, unassigned) [Example 415.0, (2S,3R)-3-(5-chloro-2-pyrimidinyl)-N-(4-((1R)-1-(1,2-oxazol-3-yl)ethyl)-5-((3S)-tetrahydro-3-furanyl)-4H-1,2,4-triazol-3-yl)-2-butanesulfonamide or (2S,3R)-3-(5-chloro-2-pyrimidinyl)-N-(4-((1S)-1-(1,2-oxazol-3-yl)ethyl)-5-((3S)-tetrahydro-3-furanyl)-4H-1,2,4-triazol-3-yl)-2-butanesulfonamide] — 0.43 log units lower, 6.64
- C[C@H](c1ncc(Cl)cn1)[C@H](C)S(=O)(=O)Nc1nnc([C@@H]2CCOC2)n1[C@H](C)c1ccon1 (single isomer, unassigned) [Example 416.0, (2S,3R)-3-(5-chloro-2-pyrimidinyl)-N-(4-((1R)-1-(1,2-oxazol-3-yl)ethyl)-5-((3S)-tetrahydro-3-furanyl)-4H-1,2,4-triazol-3-yl)-2-butanesulfonamide or (2S,3R)-3-(5-chloro-2-pyrimidinyl)-N-(4-((1S)-1-(1,2-oxazol-3-yl)ethyl)-5-((3S)-tetrahydro-3-furanyl)-4H-1,2,4-triazol-3-yl)-2-butanesulfonamide] — 0.35 log units lower, 6.72
- COc1cccc(OC)c1-n1c(NS(=O)(=O)[C@@H](C)[C@@H](OC(C)C)c2ncc(C)cn2)nnc1[C@H]1CCC(=O)N1C (single isomer, unassigned) [Example 417.0, (1S,2S)-N-(4-(2,6-dimethoxyphenyl)-5-((2R)-1-methyl-5-oxo-2-pyrrolidinyl)-4H-1,2,4-triazol-3-yl)-1-(5-methyl-2-pyrimidinyl)-1-(2-propanyloxy)-2-propanesulfonamide or (1S,2S)-N-(4-(2,6-dimethoxyphenyl)-5-((2S)-1-methyl-5-oxo-2-pyrrolidinyl)-4H-1,2,4-triazol-3-yl)-1-(5-methyl-2-pyrimidinyl)-1-(2-propanyloxy)-2-propanesulfonamide] — 0.35 log units lower, 6.72
